According to article PMC7942396, “Drug Repurposing Screen for Compounds Inhibiting the Cytopathic Effect of SARS-CoV-2” (Frontiers in Pharmacology, 2021):
Counter-ions that a name gives are not always drawn. Like-named read-outs stand apart in the source and are kept apart here.

Key:
[1] = test system: SARS-CoV-2 (USA_WA1/2020); assay: microbe, parasite or virus in culture; assay type: cell-based
[2] = human, cited from earlier work; for Cmax: Single dose 600 mg PO, ref Winstanley et al. (1987)
in vitro = conditions: African green monkey
Vero E6 cells = Vero E6 cells without virus, 72 h
[3] = Severe acute respiratory syndrome coronavirus 2, Vero C1008; […]; DMSO 0%, no-virus control 100%; hit confirmation; read-out: CPE % efficacy
[4] = Severe acute respiratory syndrome coronavirus 2, Vero C1008, read-out: CPE % Efficacy
[5] = Severe acute respiratory syndrome coronavirus 2, Vero C1008; SARS-CoV-2 CPE assay, Vero E6 cells; read-out: CPE % Efficacy
[6] = Severe acute respiratory syndrome coronavirus 2, Vero C1008; SARS-CoV-2 CPE assay, Vero E6 cells; read-out: CPE EC50
[7] = Severe acute respiratory syndrome coronavirus 2, Vero C1008, SARS-CoV-2 CPE assay, Vero E6 cells; confirmed anti-SARS-CoV-2 compounds; read-out: CPE EC50
[8] = Severe acute respiratory syndrome coronavirus 2, Vero C1008; SARS-CoV-2 CPE assay, Vero E6 cells; efficacy; read-out: CPE % Efficacy
[9] = Severe acute respiratory syndrome coronavirus 2, Vero C1008, read-out: CPE EC50 (uM)

CN(C)C(=O)C(CCN1CCC(O)(c2ccc(Cl)cc2)CC1)(c1ccccc1)c1ccccc1 [Loperamide hydrochloride, reference compound]
Emax [1, 3]: 98.6% | Elimination T1/2 ([2]; Single dose 2 mg PO, ref Janssen Pharmaceutica Inc. (1998)): 9.1 to 14.4 h | cytotoxicity (in vitro): < 30%

COC(=O)[C@H]1[C@H]2C[C@@H]3c4[nH]c5ccccc5c4CCN3C[C@H]2C[C@@H](OC(=O)c2cc(OC)c(OC)c(OC)c2)[C@@H]1OC [Deserpidine, reference compound]
EC50 ([1]; Severe acute respiratory syndrome coronavirus 2, Vero C1008, 72 h; read-out: CPE EC50): 10 µM | Emax [1, 3]: 84.7% | Elimination T1/2 ([2]; Single dose 0.25 mg PO, ref Zhang et al. (2009)): 42.9 ± 17.8 h | cytotoxicity at 72 h (in vitro): < 30%

CNCC[C@H](Oc1cccc2ccccc12)c1cccs1 [Duloxetine hydrochloride, reference compound]
EC50 ([1]; Severe acute respiratory syndrome coronavirus 2, Vero C1008, 72 h, read-out: CPE EC50): 10 µM | Emax [1, 4]: 90% | Elimination T1/2 ([2]; 60 mg BID PO, ref Knadler et al. (2011)): 6.96 to 14.9 h | cytotoxicity (in vitro): < 30%

CCN(CC)Cc1cc(Nc2ccnc3cc(Cl)ccc23)ccc1O.Cl.Cl.O.O [Amodiaquine dihydrochloride, reference compound]
% Cytotox (Vero E6 cells): <30% | CPE % Efficacy ([1]; […]; DMSO 0%, no-virus control 100%; hit confirmation): 87.2% | EC50 ([1]; read-out: CPE EC50): 4 µM | Cmax [2]: 32 ± 3 ng/mL | Cmax ([2]; read-out: Cmax): 69 nM

CNCCCC12CCC(c3ccccc31)c1ccccc12 [Maprotiline hydrochloride, reference compound]
Emax [1, 4]: 104% | Elimination T1/2 ([2]; Single dose 75 mg PO, ref Maguire et al. (1980)): 45 h | cytotoxicity (in vitro): < 30%

CCCc1cc(C)[nH]c(=O)c1CNC(=O)c1cc(-c2ccnc(N3CCN(C)CC3)c2)cc2c1cnn2C(C)C [GSK-343]
Emax [1, 5]: 51.7% | EC50 [1, 6]: 14.1 µM | CC50 (in vitro): 10 µM | cytotoxicity (in vitro): 16.6%

CN(C)CCC=C1c2ccccc2CCc2ccccc21 [Amitriptyline hydrochloride]
Emax [1, 5]: 69.9% | EC50 [1, 6]: 14.1 µM | cytotoxicity (in vitro): 0%

CC#C[C@@H](CC(=O)O)c1ccc(OCc2cccc(-c3ccc(C(F)(F)F)cc3)c2)cc1 [AMG-837]
EC50 [1, 7]: 11.2 µM | Emax [1, 8]: 106% | CC50 (in vitro): 15.8 µM | cytotoxicity (in vitro): 20.2%

CN1CCC(=C2c3ccccc3CCc3sccc32)CC1 [Pizotifen]
EC50 [1, 7]: 11.2 µM | Emax [1, 8]: 111% | CC50 at 72 h (in vitro): 11.2 µM | cytotoxicity at 72 h (in vitro): 13.4%

COc1ccc2c(c1)[C@]1(C[C@H]1c1ccc3c(/C=C/c4ccc(CN5C[C@@H](C)O[C@@H](C)C5)cc4)n[nH]c3c1)C(=O)N2 [CFI-400945]
EC50 [1, 7]: 11.2 µM | Emax [1, 8]: 77.8% | cytotoxicity at 72 h (in vitro): 31.4%

CC(CN1c2ccccc2Sc2ccc(S(=O)(=O)N(C)C)cc21)N(C)C (stereo not drawn) [Fonazine]
EC50 [1, 7]: 11.2 µM | Emax [1, 8]: 36.6% | cytotoxicity at 72 h (in vitro): 0%

CC(C)COCC(CN(Cc1ccccc1)c1ccccc1)N1CCCC1 (stereo not drawn) [Bepridil]
EC50 [1, 7]: 11.2 µM | Emax [1, 8]: 113% | CC50 (in vitro): 22.4 µM | cytotoxicity (in vitro): 25.4%

Cc1cc(O[C@@H](CCC(F)(F)F)c2ccc(C(=O)NCCC(=O)O)cc2)cc(C)c1-c1ccc(C(C)(C)C)cc1 [Adomeglivant]
EC50 [1, 7]: 3.16 µM | Emax [1, 8]: 49.2% | cytotoxicity at 72 h (in vitro): 37%

CNCCC=C1c2ccccc2CCc2ccccc21 [Pamelor]
Emax [1, 4]: 103% | EC50 [1, 9]: 12.6 µM | cytotoxicity (in vitro): 0%

CCCCN(CCCC)CCC(O)c1cc2c(Cl)cc(Cl)cc2c2cc(C(F)(F)F)ccc12 (stereo not drawn) [Halofantrine]
EC50 [1, 7]: 5.62 µM | Emax [1, 8]: 73.4% | cytotoxicity (in vitro): 37.6%

C=C1C(=O)[C@]23[C@H](O)[C@H]1CC[C@H]2[C@@]12CO[C@]3(O)[C@@H](O)[C@@H]1C(C)(C)CC[C@@H]2O [Oridonin]
Emax [1, 5]: 130% | EC50 [1, 6]: 11.2 µM | cytotoxicity (in vitro): 27.4%

CN1CCCCC1CCN1c2ccccc2Sc2ccc([S+](C)[O-])cc21 (stereo not drawn) [Mesoridazine]
Emax [1, 4]: 43.5% | EC50 [1, 9]: 12.6 µM | CC50 (in vitro): 15.8 µM | cytotoxicity (in vitro): 16.1%
